Laboratory results: patent US20220016115A1, “USP19 INHIBITORS FOR USE IN THERAPY” (ALMAC DISCOVERY LIMITED, priority 2018, published 2022)

Test system: diet-induced obese (DIO) mouse
Assay: Diet-induced obesity mouse model: body weight, DEXA and carcass composition
Type: in vivo
Protocol: To assess obesity and insulin resistance, a diet-induced obesity mouse model was used.
Male C57BL6/J mice were continuously provided with high-fat diet (D12451, 45% kcal as fat; Research Diets, New Jersey, USA) and filtered tap water ad libitum for the duration of the study. From day 0, mice were administered vehicle i.p. BID, USP19 inhibitor (ADC-141) i.p. BID at 5 mg/kg or 25 mg/kg, or positive control liraglutide 0.1 mg/kg s.c. BID. Mice were allocated to treatment groups to balance the groups on the basis of body weight, food and water intake prior to the start of treatment.
Body weight was measured daily. On Day 13, body composition was assessed by DEXA. On Day 15, fasting glucose and insulin levels were measured before and during an oral glucose tolerance test (OGTT) to assess improvements in glucose control. The OGTT was performed following an overnight fast. […] An OGTT was performed the following morning (approx. 16h post fast). Mice were dosed with vehicle or test compound (starting at 08.45) to a timed schedule 30 minutes prior to the administration of the glucose challenge (2.0 g/kg po). Blood samples were taken immediately prior to dosing (B1), immediately prior to glucose administration (B2) and 15, 30, 60 and 120 minutes after glucose administration.
After OGTT, mice were humanely killed and carcass composition was assessed. The carcass was weighed and stored frozen and the chemical composition of each carcass (fat, protein, water and ash) was determined using classical techniques. Carcass water was determined by freeze-drying the carcasses to constant weight for 2 weeks. Carcass fat was determined on samples of the dry powdered carcasses using a modified Soxhlet extraction protocol (petroleum ether at 40-60° C.) with a Tecator Soxtec 2050 system (Foss UK Ltd, Wheldrake, UK) according to the manufacturer's recommended protocol. Carcass protein was determined using a micro-Kjeldahl procedure on samples of the dry powdered carcasses using a Tecator 2012 digestion block and 2200 distilling unit (Foss UK Ltd). Residual carcass ash was determined by firing samples of the dry powdered carcasses at high temperatures using a muffle ashing furnace (Carbolite OAF 11/1). Repeat determinations of the chemical analysis parameters were performed if necessary (e.g. if the duplicate samples differed by more than 1%). Data for each body composition parameter (fat, protein, water and ash) was determined as g/carcass and % total. Final carcass weights were also analysed as a direct comparison.

[1] = ADC-141 25 mg/kg ip bid, liraglutide 0.1 mg/kg sc bid
[2] = ADC-141 25 mg/kg ip bid, liraglutide 0.1 mg/kg sc bid, vs vehicle
[3] = DEXA, ADC-141 25 mg/kg ip bid, liraglutide 0.1 mg/kg sc bid

`C[C@H](CC1CCCCC1)C(=O)N1CC[C@@](O)(Cn2cc(C(=O)N3CCNCC3)c(-c3ccccc3)cc2=O)C2(CCCC2)C1` [ADC-141, 1-(((S)-7-((R)-3-Cyclohexyl-2-methylpropanoyl)-10-hydroxy-7-azaspiro[4.5]decan-10-yl)methyl)-4-phenyl-5-(piperazine-1-carbonyl)pyridin-2(1H)-one] was tested, and the “relative water content of the carcass (percentage of total carcass mass)” value (ADC-141 5 mg/kg ip bid) was “no effect”, the “carcass water content (g)” value (ADC-141 5 mg/kg ip bid, vs vehicle) was “no significant effect” and the carcass protein (ADC-141 5 mg/kg ip bid, vs vehicle-treated animals) was “no significant changes”. For the same molecule, the carcass percentage fat (ADC-141 25 mg/kg ip bid) was −14.6%, the “differences in body weights on the final day of the study” value [1] was roughly 13% and the “loss of fat as share of the total weight lost” value [1] was 79%. For the same molecule, the “percent protein (percentage of total carcass mass), increase” value [1] was 6.0%, the “reduction in carcass fat (g) from controls” value [1] was 24.9% and the “relative water content of the carcass (percentage of total carcass mass)” value [1] was “+11.4%”. For the same molecule, the “carcass ash content (g)” value [2] was −9.6%, the “carcass protein content (g)” value [2] was −7.2% and the “carcass water content (g)” value [2] was “no significant effect”. For the same molecule, the “reduction in fat mass compared to vehicle treated controls” value (DEXA Day 13, liraglutide 0.1 mg/kg sc bid, dose of USP19 inhibitor not printed at place) was 24%, the “lean body mass change” value (DEXA Day 13, vs vehicle, not significant (p>0.05)) was −3% and the total tissue mass (DEXA analysis) was “significant reduction”. For the same molecule, the “fat mass % (percentage of total tissue mass)” value [3] was “significantly decreased”, the “lean mass % (percentage of total tissue mass)” value [3] was “increased” and the “cumulative and average food intake” value (compared to vehicle control mice (p<0.001)) was “reduction”. The “carcass weight compared to vehicle-treated controls” value (two weeks, ADC-141 25 mg/kg ip bid, liraglutide 0.1 mg/kg sc bid) was roughly −12%, the “average weekly body weight gain” value (week 1, ADC-141 25 mg/kg ip bid, liraglutide 0.1 mg/kg sc bid, vs vehicle) was “significantly decreased” and the “average weekly body weight gain” value (week 2, ADC-141 25 mg/kg ip bid, liraglutide 0.1 mg/kg sc bid, vs vehicle) was “significantly decreased”.
